Converted amounts (≈) assume the structure as drawn. The source made the active and inactive calls. The calls are words filed in the database; no cut-off is given here.
Tests used:
[1] = tested on: Staphylococcus epidermidis
[2] = tested on: Staphylococcus epidermidis; remark: listed apart in the source
[3] = tested on: Stenotrophomonas maltophilia; assay: Antibacterial activity against non-levofloxacin susceptible Stenotrophomonas maltophilia by CLSI M7-A7 method; assay type: functional
Proteus mirabilis [4] = assay: Antibacterial activity against Proteus mirabilis assessed as percent susceptible isolates by CLSI M7-A7 method; assay type: functional
Acinetobacter lwoffii [5] = assay: Antibacterial activity against Acinetobacter lwoffii assessed as percent susceptible isolates by CLSI M7-A7 method; assay type: functional
[6] = tested on: Acinetobacter calcoaceticus; assay: Antibacterial activity against Acinetobacter calcoaceticus assessed as percent susceptible isolates by CLSI M7-A7 method; assay type: functional
[7] = tested on: Acinetobacter calcoaceticus; assay: Antibacterial activity against Acinetobacter calcoaceticus by CLSI M7-A7 method; assay type: functional
Proteus mirabilis [8] = assay: Antibacterial activity against Proteus mirabilis by CLSI M7-A7 method; assay type: functional
Pseudomonas aeruginosa [9] = assay: Antibacterial activity against ciprofloxacin-susceptible Pseudomonas aeruginosa assessed as percent susceptible isolates by CLSI M7-A7 method; assay type: functional
Acinetobacter baumannii [10] = assay: Antibacterial activity against Acinetobacter baumannii assessed as percent susceptible isolates by CLSI M7-A7 method; assay type: functional
Morganella morganii [11] = assay: Antibacterial activity against Morganella morganii assessed as percent susceptible isolates by CLSI M7-A7 method; assay type: functional
Serratia marcescens [12] = assay: Antibacterial activity against Serratia marcescens by CLSI M7-A7 method; assay type: functional
Citrobacter freundii [13] = assay: Antibacterial activity against Citrobacter freundii assessed as percent susceptible isolates by CLSI M7-A7 method; assay type: functional
Acinetobacter baumannii [14] = assay: Antibacterial activity against Acinetobacter baumannii by CLSI M7-A7 method; assay type: functional
Serratia marcescens [15] = assay: Antibacterial activity against levofloxacin susceptible Serratia marcescens assessed as percent susceptible isolates by CLSI M7-A7 method; assay type: functional
[16] = tested on: Stenotrophomonas maltophilia; assay: Antibacterial activity against non-levofloxacin susceptible Stenotrophomonas maltophilia assessed as percent susceptible isolates by CLSI M7-A7 method; assay type: functional
Enterobacter cloacae [17] = assay: Antibacterial activity against Enterobacter cloacae by CLSI M7-A7 method; assay type: functional
Morganella morganii [18] = assay: Antibacterial activity against Morganella morganii by CLSI M7-A7 method; assay type: functional
Proteus vulgaris [19] = assay: Antibacterial activity against Proteus vulgaris by CLSI M7-A7 method; assay type: functional
Klebsiella oxytoca [20] = assay: Antibacterial activity against Klebsiella oxytoca assessed as percent susceptible isolates by CLSI M7-A7 method; assay type: functional
[21] = tested on: Stenotrophomonas maltophilia; assay: Antibacterial activity against levofloxacin-susceptible Stenotrophomonas maltophilia by CLSI M7-A7 method; assay type: functional
[22] = tested on: Stenotrophomonas maltophilia; assay: Antibacterial activity against levofloxacin-susceptible Stenotrophomonas maltophilia assessed as assessed as percent susceptible isolates by CLSI M7-A7 method; assay type: functional
Klebsiella aerogenes [23] = assay: Antibacterial activity against Enterobacter aerogenes assessed as percent susceptible isolates by CLSI M7-A7 method; assay type: functional
Enterobacter cloacae [24] = assay: Antibacterial activity against Enterobacter cloacae assessed as percent susceptible isolates by CLSI M7-A7 method; assay type: functional
Klebsiella oxytoca [25] = assay: Antibacterial activity against Klebsiella oxytoca by CLSI M7-A7 method; assay type: functional
Klebsiella aerogenes [26] = assay: Antibacterial activity against Enterobacter aerogenes by CLSI M7-A7 method; assay type: functional
Citrobacter freundii [27] = assay: Antibacterial activity against Citrobacter freundii by CLSI M7-A7 method; assay type: functional
Pseudomonas aeruginosa [28] = assay: Antibacterial activity against ciprofloxacin-susceptible Pseudomonas aeruginosa by CLSI M7-A7 method; assay type: functional
Klebsiella pneumoniae [29] = assay: Antibacterial activity against Klebsiella pneumoniae by CLSI M7-A7 method; assay type: functional
Acinetobacter lwoffii [30] = assay: Antibacterial activity against Acinetobacter lwoffii by CLSI M7-A7 method; assay type: functional
Pseudomonas aeruginosa [31] = assay: Antibacterial activity against non-ciprofloxacin-susceptible Pseudomonas aeruginosa assessed as percent susceptible isolates by CLSI M7-A7 method; assay type: functional
Proteus vulgaris [32] = assay: Antibacterial activity against Proteus vulgaris assessed as percent susceptible isolates by CLSI M7-A7 method; assay type: functional
Citrobacter koseri [33] = assay: Antibacterial activity against Citrobacter koseri by CLSI M7-A7 method; assay type: functional
Citrobacter koseri [34] = assay: Antibacterial activity against Citrobacter koseri assessed as percent susceptible isolates by CLSI M7-A7 method; assay type: functional
Klebsiella pneumoniae [35] = assay: Antibacterial activity against Klebsiella pneumoniae assessed as percent susceptible isolates by CLSI M7-A7 method; assay type: functional
Pseudomonas aeruginosa [36] = assay: Antibacterial activity against non-ciprofloxacin-susceptible Pseudomonas aeruginosa by CLSI M7-A7 method; assay type: functional

COc1c(N2C[C@@H]3CCCN[C@@H]3C2)c(F)cc2c(=O)c(C(=O)O)cn(C3CC3)c12
MIC90 [1]: inactive | MIC90 [2]: inactive

O=C(O)c1cn(C2CC2)c2cc(N3CCNCC3)c(F)cc2c1=O
MIC90 [1]: inactive | MIC90 [2]: inactive

CC(C)(O/N=C(\C(=O)N[C@@H]1C(=O)N2C(C(=O)[O-])=C(C[n+]3ccccc3)CS[C@H]12)c1csc(N)n1)C(=O)O [CEFTAZIDIME]
MIC [3]: 0.5 µg/mL (≈ 0.915 µM) | Activity (Proteus mirabilis [4]): 98% | Activity (Acinetobacter lwoffii [5]): 76% | Activity [6]: 63% | MIC50 [7]: 4 µg/mL (≈ 7.32 µM) | MIC90 [7]: > 16 µg/mL | MIC (Proteus mirabilis [8]): ≤ 0.03 µg/mL | MIC50 (Proteus mirabilis [8]): ≤ 0.03 µg/mL | MIC90 (Proteus mirabilis [8]): 0.06 µg/mL (≈ 0.11 µM) | Activity (Pseudomonas aeruginosa [9]): 93.3% | Activity (Acinetobacter baumannii [10]): 39.6% | Activity (Morganella morganii [11]): 82.4% | MIC50 (Serratia marcescens [12]): 0.06 µg/mL (≈ 0.11 µM) | MIC90 (Serratia marcescens [12]): 0.5 µg/mL (≈ 0.915 µM) | Activity (Citrobacter freundii [13]): 78% | MIC50 (Acinetobacter baumannii [14]): > 16 µg/mL | MIC90 (Acinetobacter baumannii [14]): > 16 µg/mL | Activity (Serratia marcescens [15]): 93% | Activity [16]: 43.8% | MIC50 (Enterobacter cloacae [17]): 0.5 µg/mL (≈ 0.915 µM) | MIC90 (Enterobacter cloacae [17]): > 16 µg/mL | MIC50 (Morganella morganii [18]): 0.12 µg/mL (≈ 0.22 µM) | MIC90 (Morganella morganii [18]): 16 µg/mL (≈ 29.3 µM) | MIC50 (Proteus vulgaris [19]): 0.06 µg/mL (≈ 0.11 µM) | MIC90 (Proteus vulgaris [19]): 0.12 µg/mL (≈ 0.22 µM) | Activity (Klebsiella oxytoca [20]): 100% | MIC [21]: 0.5 µg/mL (≈ 0.915 µM) | Activity [22]: 32.7% | Activity (Klebsiella aerogenes [23]): 62% | Activity (Enterobacter cloacae [24]): 70% | MIC50 (Klebsiella oxytoca [25]): 0.12 µg/mL (≈ 0.22 µM) | MIC90 (Klebsiella oxytoca [25]): 0.5 µg/mL (≈ 0.915 µM) | MIC50 (Klebsiella aerogenes [26]): 2 µg/mL (≈ 3.66 µM) | MIC90 (Klebsiella aerogenes [26]): > 16 µg/mL | MIC50 (Citrobacter freundii [27]): 0.25 µg/mL (≈ 0.457 µM) | MIC90 (Citrobacter freundii [27]): > 16 µg/mL | MIC50 (Pseudomonas aeruginosa [28]): 2 µg/mL (≈ 3.66 µM) | MIC90 (Pseudomonas aeruginosa [28]): 8 µg/mL (≈ 14.6 µM) | MIC50 (Klebsiella pneumoniae [29]): 0.12 µg/mL (≈ 0.22 µM) | MIC90 (Klebsiella pneumoniae [29]): 1 µg/mL (≈ 1.83 µM) | MIC50 (Acinetobacter lwoffii [30]): 2 µg/mL (≈ 3.66 µM) | MIC90 (Acinetobacter lwoffii [30]): > 16 µg/mL | Activity (Pseudomonas aeruginosa [31]): 57.3% | Activity (Proteus vulgaris [32]): 100% | MIC50 (Citrobacter koseri [33]): 0.12 µg/mL (≈ 0.22 µM) | MIC90 (Citrobacter koseri [33]): 0.5 µg/mL (≈ 0.915 µM) | Activity (Citrobacter koseri [34]): 100% | Activity (Klebsiella pneumoniae [35]): 92% | MIC50 (Pseudomonas aeruginosa [36]): 4 µg/mL (≈ 7.32 µM) | MIC90 (Pseudomonas aeruginosa [36]): > 16 µg/mL

Source: ChEMBL document CHEMBL1649565, “Besifloxacin, a novel fluoroquinolone, has broad-spectrum in vitro activity against aerobic and anaerobic bacteria” (Antimicrob Agents Chemother, 2009)
